16 compounds from ChEMBL document CHEMBL1153819, “Use of acetylcholine binding protein in the search for novel alpha7 nicotinic receptor ligands. In silico docking, pharmacological screening, and X-ray analysis” (J Med Chem, 2009) can be followed below.

SMILES strings stand for the structures. Active and inactive are the calls of the source. The calls are words filed in the database; no cut-off is given here.

The target of assay [1] is Acetylcholine-binding protein (Lymnaea stagnalis, UniProt P58154). Briefly: Displacement of [125I]alpha-bungarotoxin from Lymnaea stagnalis His-tagged AchBP.
Assay [2] concerns the target T1, Neuronal acetylcholine receptor subunit alpha-7 (Homo sapiens, UniProt P36544). Briefly: Binding affinity to human alpha7 nAChR allosteric site assessed as increase in bungarotoxin Kd at 100 uM by [125I]alpha-bungarotoxin saturation binding experiment.
Assay [3] concerns the target T2, Neuronal acetylcholine receptor; alpha4/beta2 (Homo sapiens, UniProt P17787+P43681). Briefly: Displacement of [3H]epibatidine from human alpha4beta2 nAChR expressed in HEK293t cells. As to conditions: HEK-293T. Type of assay: cell-based. (Loss of bound radioactivity is the signal in a displacement assay; it reports binding, not function.)
Assay [4] deals with T1, Neuronal acetylcholine receptor subunit alpha-7. As to the kind of experiment: Binding affinity to human alpha7 nAChR allosteric site assessed as decrease in bungarotoxin Bmax at 100 uM by [125I]alpha-bungarotoxin saturation binding experiment.
Assay [5] is described as follows: Displacement of [3H]epibatidine from Aplysia californica AchBP.
The target of assay [6] is T2, Neuronal acetylcholine receptor; alpha4/beta2. Briefly: Activity at human alpha4beta2 nAChR expressed in Xenopus oocytes assessed as inhibition of acetylcholine-evoked current. The conditions noted are these: for Activity: Oocyte. In kind it is cell-based, Oocyte.
The target in assay [7] is T3, 5-hydroxytryptamine receptor 3A (Homo sapiens) (UniProt P46098).
T3 sequence (whole entry): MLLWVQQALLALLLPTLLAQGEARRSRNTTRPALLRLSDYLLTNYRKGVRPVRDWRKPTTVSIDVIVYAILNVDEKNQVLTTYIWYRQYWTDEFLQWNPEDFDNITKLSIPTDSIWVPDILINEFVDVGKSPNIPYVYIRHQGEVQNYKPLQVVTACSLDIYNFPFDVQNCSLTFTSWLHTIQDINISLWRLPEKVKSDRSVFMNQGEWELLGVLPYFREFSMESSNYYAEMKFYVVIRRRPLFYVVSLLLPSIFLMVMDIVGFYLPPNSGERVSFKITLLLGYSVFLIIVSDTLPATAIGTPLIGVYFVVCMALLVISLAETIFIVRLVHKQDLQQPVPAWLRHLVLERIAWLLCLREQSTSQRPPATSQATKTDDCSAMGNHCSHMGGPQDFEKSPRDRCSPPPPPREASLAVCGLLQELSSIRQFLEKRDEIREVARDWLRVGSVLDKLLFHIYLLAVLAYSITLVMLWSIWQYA
As to the kind of experiment: Inhibition of human 5HT3A receptor.

The target in assay [8] is T1, Neuronal acetylcholine receptor subunit alpha-7. Briefly: Activity at human alpha7 nAChR expressed in Xenopus oocytes assessed as inhibition of acetylcholine-evoked current. In kind it is cell-based, Oocyte. The conditions noted are these: for Activity: Oocyte.
For assay [9] the target is unchanged. As to the kind of experiment: Displacement of [125I]alpha-bungarotoxin from human alpha7 nAChR expressed in human SH-SY5Y cells. Type of assay: cell-based.

Chain of Acetylcholine-binding protein (P58154 whole entry): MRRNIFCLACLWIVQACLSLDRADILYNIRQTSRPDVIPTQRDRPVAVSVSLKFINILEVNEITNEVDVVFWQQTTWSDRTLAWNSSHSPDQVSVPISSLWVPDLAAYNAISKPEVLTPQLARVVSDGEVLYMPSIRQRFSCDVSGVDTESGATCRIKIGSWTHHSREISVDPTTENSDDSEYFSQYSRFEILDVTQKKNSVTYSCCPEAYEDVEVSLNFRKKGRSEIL
T1 sequence (P36544 whole entry): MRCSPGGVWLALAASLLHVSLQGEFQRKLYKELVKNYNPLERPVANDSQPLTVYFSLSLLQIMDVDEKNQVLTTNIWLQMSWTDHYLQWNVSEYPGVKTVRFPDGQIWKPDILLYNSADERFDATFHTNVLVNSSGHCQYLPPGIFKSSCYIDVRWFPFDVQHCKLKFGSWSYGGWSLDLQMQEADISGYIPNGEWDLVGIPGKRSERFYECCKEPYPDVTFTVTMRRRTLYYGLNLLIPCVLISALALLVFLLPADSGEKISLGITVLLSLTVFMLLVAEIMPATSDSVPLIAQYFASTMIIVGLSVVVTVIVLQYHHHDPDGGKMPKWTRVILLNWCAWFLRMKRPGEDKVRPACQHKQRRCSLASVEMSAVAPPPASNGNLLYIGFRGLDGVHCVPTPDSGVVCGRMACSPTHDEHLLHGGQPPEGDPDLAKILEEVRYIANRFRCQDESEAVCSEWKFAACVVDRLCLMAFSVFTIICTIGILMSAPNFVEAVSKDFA
T2 sequence (P17787 whole entry): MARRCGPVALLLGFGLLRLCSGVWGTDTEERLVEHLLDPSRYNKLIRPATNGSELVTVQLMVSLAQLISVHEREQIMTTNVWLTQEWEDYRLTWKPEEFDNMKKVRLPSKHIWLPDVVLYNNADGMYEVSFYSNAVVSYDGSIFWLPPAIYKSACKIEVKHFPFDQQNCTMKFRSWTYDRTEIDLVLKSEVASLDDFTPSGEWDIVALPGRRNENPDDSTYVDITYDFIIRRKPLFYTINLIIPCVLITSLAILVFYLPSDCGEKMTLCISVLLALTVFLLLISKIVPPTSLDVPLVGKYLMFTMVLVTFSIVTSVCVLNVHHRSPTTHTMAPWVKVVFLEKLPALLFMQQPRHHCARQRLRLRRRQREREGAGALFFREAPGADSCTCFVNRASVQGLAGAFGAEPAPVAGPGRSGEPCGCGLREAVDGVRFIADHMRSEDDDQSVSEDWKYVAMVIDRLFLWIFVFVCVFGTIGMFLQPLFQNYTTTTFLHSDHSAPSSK
T2 sequence (P43681 whole entry): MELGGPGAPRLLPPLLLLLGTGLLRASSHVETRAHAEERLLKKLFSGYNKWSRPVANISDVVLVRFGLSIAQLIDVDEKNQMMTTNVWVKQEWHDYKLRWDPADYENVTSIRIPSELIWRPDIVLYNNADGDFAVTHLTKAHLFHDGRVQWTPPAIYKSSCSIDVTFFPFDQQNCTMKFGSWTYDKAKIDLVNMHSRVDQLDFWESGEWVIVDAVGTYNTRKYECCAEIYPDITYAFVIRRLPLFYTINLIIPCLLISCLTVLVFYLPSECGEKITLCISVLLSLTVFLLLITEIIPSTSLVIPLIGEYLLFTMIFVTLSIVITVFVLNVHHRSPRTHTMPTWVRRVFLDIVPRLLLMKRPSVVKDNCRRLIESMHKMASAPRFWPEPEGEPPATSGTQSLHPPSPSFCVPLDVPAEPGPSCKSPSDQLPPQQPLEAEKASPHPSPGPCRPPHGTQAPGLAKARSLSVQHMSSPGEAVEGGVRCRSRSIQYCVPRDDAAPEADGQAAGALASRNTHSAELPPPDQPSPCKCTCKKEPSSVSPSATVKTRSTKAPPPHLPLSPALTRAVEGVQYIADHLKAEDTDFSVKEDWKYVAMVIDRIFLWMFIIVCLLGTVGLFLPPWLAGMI

Broadly, the Ki is a dissociation constant, usually derived from enzyme kinetics or from competition with a known ligand. A higher Ki goes with lower affinity. In the case of `c1ccc2c(c1)CCc1ccccc1C2OC1CCNCC1`, in [1], the Ki was 3160 nM.
In assay [1], `N=C(CCN1C2CCC1CC(OC1c3ccccc3CCc3ccccc31)C2)NO` (centres undefined) gave a Ki of 1260 nM.
The same measure, in the same setting: for `CN1[C@@H]2CC[C@H]1C[C@@H](OC1c3ccccc3CCc3ccccc31)C2` [DEPTROPINE] the value was 398 nM; for `CCCN1CCC(OC2c3ccccc3CCc3ccccc32)CC1`, 631 nM; for `Cc1cccc2c1CCc1ccccc1C2OC1CC2CCC(C1)N2C` (centres undefined), 316 nM.
Usually pKi stands for −log10 of the Ki, conventionally taken in molar units. A lower pKi goes with a large Ki. By IC50 is commonly meant the concentration that inhibits the measured activity by half. For `c1ccc(CN2C3CCC2CC(OC2c4ccccc4CCc4ccccc42)C3)cc1` (centres undefined), the result in assay [2], in [4] and in [7] was Active. The outcome in assay [3] was inactive. For the same compound, the figures for the Ki in assay [1] and in [9] were 100 nM and 12600 nM, respectively. Further, the pKi in assay [5] is 6. Moreover, the IC50 in [6] came out at 460 nM; in assay [8], 1730 nM. Besides, the Activity entry in [6] and in assay [8] was “Dose-dependent effect” in each case.
For `CN1C2CCC1CC(OC(=O)COC1c3ccccc3CCc3ccccc31)C2` (centres undefined), the Ki in assay [1] was 100 nM.
Consider `C[N+]1(C)C2CCC1CC(OC1c3ccccc3CCc3ccccc31)C2` (centres undefined), for which the result in assay [3] was inactive. The Ki in assay [1] is 63.1 nM; in [9], 2000 nM. Also, the outcome in [4] and in [7] was Active. In addition, the values for the IC50 in [6] and in [8] were 210 nM and 880 nM, respectively. Further, the Activity result in [6] and in assay [8] was “Dose-dependent effect” throughout.
Consider `c1ccc2c(c1)CCc1ccccc1C2OC1CC2CCC(C1)N2` (centres undefined), for which the Ki in assay [1] was 316 nM.
Still for that read-out and setting: for `NC(N)=NCCN1C2CCC1CC(OC1c3ccccc3CCc3ccccc31)C2` (centres undefined) the value was 501 nM; for `CN1CCC(OC2c3ccccc3CCc3ccccc32)CC1` [HEPZIDINE], 1580 nM.
The same measure, in the same setting: for `CC(=O)OCC[N+](C)(C)C` [ACETYLCHOLINE] the value was 3160 nM; for `CCN1C2CCC1CC(OC1c3ccccc3CCc3ccccc31)C2` (centres undefined), 126 nM.
As for `CN1CCC[C@H]1c1cccnc1` [NICOTINE], the pKi in [5] is 6.4.
`Cc1ccc2c(c1)C(OC1CC3CCC(C1)N3C)c1ccccc1CC2` (centres undefined) gave a Ki in assay [1] of 126 nM.
Same read-out and setting: in the case of `N#CCCN1C2CCC1CC(OC1c3ccccc3CCc3ccccc31)C2` (centres undefined) it was 1000 nM.
